Measured values reported in publication PMC6753678, “Fueling Open Innovation for Malaria Transmission-Blocking Drugs: Hundreds of Molecules Targeting Early Parasite Mosquito Stages” (Frontiers in Microbiology, 2019).
“And” between values parts separate entries of the source, which are not always exact repeats. Identical values can stand only once. Like-named read-outs stand apart in the source and are kept apart here.

Legend:
[1] = tested on: P. berghei ookinete development
[2] = tested on: HepG2 cells; assay: HepG2 cytotoxicity assay; settings: for Pb ODA (this manuscript) HepG2 cytoxicity: HepG2 cytotoxicity listed with the Pb ODA data set (this manuscript)
Procedure, shortened: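 Here viability after a 48 h compound incubation (37°C, humidified 5% CO2) is measured by fluorescence and expressed as percent inhibition, with doxorubicin at 50 μM and DMSO as the bounding controls.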

[3] = tested on: 3D7-strain P. falciparum asexual parasites; assay: P. falciparum asexual growth inhibition assay (Pf GIA); format: cell-based, Plasmodium falciparum; settings: Plasmodium falciparum
Procedure, shortened: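 Read-out was lactate dehydrogenase activity measured by absorbance at 650 nm after freezing and thawing, against 50 μM chloroquine and DMSO controls. Before that, asexual 3D7 cultures (0.25% parasitemia, 2% hematocrit) had 72 h dose-response compound exposure at 37°C in 5% CO2/5% O2/90% N2; three independent replicates averaged.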

[4] = tested on: P. berghei ookinete development; assay: microbe, parasite or virus in culture; settings: Plasmodium berghei
[5] = tested on: P. falciparum male gametocytes; assay: P. falciparum Dual Gamete Formation Assay (Pf DGFA), male readout; settings: for Pf DGFA Male, Expt 1 / Pf DGFA Male, Expt 2 / Pf DGFA Male, Expt 3 / Pf DGFA Male, Expt 4: 1µM; for inhibition at 1 µM: Plasmodium falciparum, read-out: % inhibition Pf DGFA (male) 1 μM (±SEM), 1 μM, mean of four experiments
[6] = tested on: P. falciparum female gametocytes; assay: P. falciparum Dual Gamete Formation Assay (Pf DGFA), female readout; settings: for Pf DGFA Female, Expt 1 / Pf DGFA Female, Expt 2 / Pf DGFA Female, Expt 3 / Pf DGFA Female, Expt 4: 1µM; for % inhibition Pf DGFA (female) 1 μM (±SEM): mean of four experiments; for inhibition at 1 µM: Plasmodium falciparum, read-out: % inhibition Pf DGFA (female) 1 μM (±SEM), 1 μM, mean of four experiments
[7] = tested on: P. berghei oocyst intensity in Anopheles stephensi mosquitoes; assay: P. berghei standard membrane feeding assay (Pb SMFA); settings: for Raw mosquito counts (oocysts per mosquito): one mosquito per cell; for Number of oocysts counted per mosquito (raw mosquito counts): individual mosquito
[8] = read-out: % inhibition, Replicate A
[9] = read-out: % inhibition, Replicate B
[10] = Homo sapiens, HepG2, 48 h, read-out: IC50 HepG2
[11] = 3D7, dose response confirmation, read-out: Pf asexual growth inhibition assays IC50
[12] = 3D7, 72 h, LDH readout, read-out: IC50 Pf Asexual
[13] = read-out: % inhibition Pb SMFA 1 μM (±SEM), inhibition of oocyst intensity at 1 μM
[14] = read-out: IC50 Pb ODA, dose response, at least triplicate

C[C@@H]1C[C@@H]([C@H](O)CC2CC(=O)NC(=O)C2)C(=O)[C@@H](C)C1 [TCMDC-125838]
Is compound selective in assay? Pb ODA active? [1]: 1 (key: 1: YES; 0: NO)
IC50 ([2]; read-out: HepG2 cytotoxicity assay IC50, dose response confirmation): 100 µM
Unified cytotox ([2]; unified HepG2 value across the three screens): 100.00 µM
IC50 ([3]; 3D7, read-out: Pf asexual growth inhibition assays IC50): 0.596 µM
inhibition at 1 µM [4, 8]: 110%
inhibition at 1 µM [4, 9]: 117%
IC50 ([4]; read-out: Pb ODA IC50 (µM)): 0.11 µM
IC50 ([4]; read-out: Pb Ookinete development assay IC50): 0.109 µM

Cc1[nH]c(C)c(-c2ccc(CCc3ccc(F)cc3F)cc2)c(=O)c1Br [TCMDC-135461]
Pf DGFA Male, Expt 1 [5]: 97.72
Pf DGFA Male, Expt 2 [5]: 60.95
Pf DGFA Male, Expt 3 [5]: 69.63
Pf DGFA Male, Expt 4 [5]: 73.29
inhibition at 1 µM [5]: 75.4%
Pf DGFA Female, Expt 1 [6]: 72.43
Pf DGFA Female, Expt 2 [6]: 81.97
Pf DGFA Female, Expt 3 [6]: -31.20
Pf DGFA Female, Expt 4 [6]: -13.42
% inhibition Pf DGFA (female) 1 μM (±SEM) [6]: 27.45%
inhibition at 1 µM [6]: 27.4%
Is compound selective in assay? Pb ODA active? [1]: 1 (key: 1: YES; 0: NO)
Pb ODA (this manuscript) HepG2 cytoxicity [2]: 100.00 µM
IC50 [2, 10]: > 100 µM
IC50 [3, 11]: 0.003 µM
IC50 [3, 12]: 0.0031 µM
Mean (number of oocysts counted per mosquito) ([7]; Experiment 4, 10nM): 0.78
Prevalence ([7]; Experiment 4, 10nM): 45.65
Mean (number of oocysts counted per mosquito) ([7]; Experiment 4, 100nM): 0.00
Mean (number of oocysts counted per mosquito) ([7]; Experiment 4, 1µM): 0.00
Prevalence ([7]; Experiment 4, 1µM): 0.00
Raw mosquito counts (oocysts per mosquito) ([7]; Experiment 4, 100nM): 0
Raw mosquito counts (oocysts per mosquito) ([7]; Experiment 4, 1µM): 0
Mean (number of oocysts counted per mosquito) ([7]; Experiment 5, 10nM): 2.70
Prevalence ([7]; Experiment 5, 10nM): 45.65
Mean (number of oocysts counted per mosquito) ([7]; Experiment 5, 100nM): 1.53
Number of oocysts counted per mosquito (raw mosquito counts) ([7]; Experiment 5, 100nM): 0 and 1 and 3
Mean (number of oocysts counted per mosquito) ([7]; Experiment 5, 1µM): 0.00
Prevalence ([7]; Experiment 5, 1µM): 0.00
Number of oocysts counted per mosquito (raw mosquito counts) ([7]; Experiment 5, 1µM): 0
Raw mosquito counts (oocysts per mosquito) ([7]; Experiment 5, 1µM): 0
Mean (number of oocysts counted per mosquito) ([7]; Experiment 6, 10nM): 58.31
Prevalence ([7]; Experiment 6, 10nM): 98.15
Mean (number of oocysts counted per mosquito) ([7]; Experiment 6, 100nM): 21.75
Prevalence ([7]; Experiment 6, 100nM): 86.76
Number of oocysts counted per mosquito (raw mosquito counts) ([7]; Experiment 6, 100nM): 30
Mean (number of oocysts counted per mosquito) ([7]; Experiment 6, 1µM): 0.00
Prevalence ([7]; Experiment 6, 1µM): 0.00
Number of oocysts counted per mosquito (raw mosquito counts) ([7]; Experiment 6, 1µM): 0
Raw mosquito counts (oocysts per mosquito) ([7]; Experiment 6, 1µM): 0
inhibition at 0.1 µM ([7]; read-out: % inhibition (oocyst intensity), Experiment 4, 100nM, vs DMSO): 100%
inhibition at 1 µM ([7]; read-out: % inhibition (oocyst intensity), Experiment 4, 1µM, vs DMSO): 100%
inhibition at 0.01 µM ([7]; read-out: % inhibition (oocyst intensity), Experiment 5, 10nM, vs DMSO): 28.9%
inhibition at 0.1 µM ([7]; read-out: % inhibition (oocyst intensity), Experiment 5, 100nM, vs DMSO): 59.6%
inhibition at 1 µM ([7]; read-out: % inhibition (oocyst intensity), Experiment 5, 1µM, vs DMSO): 100%
inhibition at 0.01 µM ([7]; read-out: % inhibition (oocyst intensity), Experiment 6, 10nM, vs DMSO): 30.5%
inhibition at 0.1 µM ([7]; read-out: % inhibition (oocyst intensity), Experiment 6, 100nM, vs DMSO): 74.1%
inhibition at 1 µM ([7]; read-out: % inhibition (oocyst intensity), Experiment 6, 1µM, vs DMSO): 100%
inhibition at 1 µM [7, 13]: 100%
inhibition at 1 µM ([7]; read-out: % prev inhibition, Experiment 4, 1µM, vs DMSO): 100%
inhibition at 1 µM ([7]; read-out: % prev inhibition, Experiment 5, 1µM, vs DMSO): 100%
inhibition at 0.01 µM ([7]; read-out: % prev inhibition, Experiment 6, 10nM, vs DMSO): 1.85%
inhibition at 0.1 µM ([7]; read-out: % prev inhibition, Experiment 6, 100nM, vs DMSO): 13.2%
inhibition at 1 µM ([7]; read-out: % prev inhibition, Experiment 6, 1µM, vs DMSO): 100%
inhibition at 0.01 µM ([7]; read-out: inhibition of oocyst intensity Pb SMFA, 10 nM): 43%
inhibition at 0.1 µM ([7]; read-out: inhibition of oocyst intensity Pb SMFA, 100 nM): 77.9%
inhibition at 1 µM [4, 8]: 68.3%
inhibition at 1 µM [4, 9]: 109%
IC50 [4, 14]: < 0.0002 µM

CCCCCCCc1c(C)nc2cc(OC)ccc2c1O [TCMDC-137173, endochin]
Pf DGFA Male, Expt 1 [5]: 94.68
Pf DGFA Male, Expt 2 [5]: 60.36
Pf DGFA Male, Expt 3 [5]: 74.13
Pf DGFA Male, Expt 4 [5]: 77.74
% inhibition Pf DGFA (male) 1 μM (±SEM) ([5]; 1 μM, mean of four experiments): 76.7% and 76.73%
inhibition at 1 µM [5]: 76.7%
Pf DGFA Female, Expt 1 [6]: 46.16
Pf DGFA Female, Expt 2 [6]: 7.10
Pf DGFA Female, Expt 3 [6]: 41.06
Pf DGFA Female, Expt 4 [6]: -10.25
% inhibition Pf DGFA (female) 1 μM (±SEM) [6]: 21.02%
inhibition at 1 µM [6]: 21%
Is compound selective in assay? Pb ODA active? [1]: 1 (key: 1: YES; 0: NO)
Pb ODA (this manuscript) HepG2 cytoxicity [2]: 100.00 µM
IC50 [2, 10]: > 100 µM
IC50 [3, 11]: 0.035 µM
IC50 [3, 12]: 0.0352 µM
inhibition at 1 µM [7, 13]: 98.4%
inhibition at 1 µM [4, 8]: 115%
inhibition at 1 µM [4, 9]: 101%
IC50 [4, 14]: < 0.06 µM
IC50 ([4]; read-out: Pb ODA (this manuscript) IC50 (µM), P. berghei ookinete development assay, this manuscript): 0.0248 µM
IC50 ([4]; read-out: Pb Ookinete development assay IC50 (µM), dose response confirmation): 0.025 µM
